{"source": "patent US20090291857A1", "about": "“METHODS TO IDENTIFY INHIBITORS OF THE UNFOLDED PROTEIN RESPONSE” (THE BOARD OF TRUSTEES OF THE LELAND STANFORD JUNIOR …, priority 2006, published 2009)", "key": {"HT1080 fibrosarcoma": {"system": "HT1080 fibrosarcoma", "experiment": "Cell proliferation assay, HT1080", "format": "cell-based, human", "details": "same concentrations", "experimental": "A. Effect of irestatin 9389 on PERK and ATF6 pathways. HT1080 cells were treated with vehicle alone (lanes 1-4) or 2.5 μM irestatin 9389 (lanes 5-8) and cultured under aerobic conditions for 18 hours (N) or shifted to hypoxia for the indicated times. Protein lysates were analyzed by Western blot analysis using antisera specific for ATF6 (top), CHOP/GADD153 (middle) or actin (bottom). Arrow indicates the cleaved, transcriptionally active form of ATF6. B. Cleavage of caspase-3 in irestatin-treated cells under hypoxia. HT1080 cells were cultured in normoxia (N) or under hypoxia for 36 hours (H 36) in absence or presence of irestatin 9389 (2.5 μM). Arrows indicate proteolytically cleaved caspase-3. C. Colony formation assay. HT1080 cells were treated as in B under normoxia (N) or hypoxia for 48 hours (H 48). Cells were harvested, counted, and allowed to grow under normal culture conditions for 11-12 days. Colonies were visualized with crystal violet staining. D. Quantification of clonogenic survival assay. Values represent the mean+/−SEM from at least 4 independent experiments. E. TUNEL staining of cells treated as in C. F. Quantification of TUNEL-positive cells. Values represent the mean+/−SEM from at least 3 experiments. […] Cells were harvested at the indicated times and counted by hemocytometer. Values represent the mean calculated from triplicate experiments +/−SEM. […]"}, "Grp78": {"system": "Grp78", "experiment": "Grp78 immunoblot in HT1080 cells", "format": "cell-based, human", "details": "2.5 μM, 16 hours (also 24 or 36 hours)", "experimental": "Cells (2×10^6) were cultured in 10-cm dishes, collected using a cell scraper at 4° C., and lysed by addition of 150 μl cell lysis buffer [50 mM Tris pH 7.4, 150 mM NaCl, 10% glycerol, 0.5% Triton X-100. 0.5% NP-40, 2 mM Na3VO4, 20 mM beta-glycerophosphate, 10 mM NaF, 1 mM DTT, 1 mM PMSF). Lysates were centrifuged for 5 min at 10,000×g, and proteins (˜40 μg) were resolved by SDS-PAGE followed by semi-dry transfer to nitrocellulose membranes. Membranes were blocked in TBS-5% milk supplemented with 0.1% Tween-20. The blots were then probed overnight with relevant antibodies, washed, and incubated for 2 hours with species-specific secondary antibodies conjugated to horseradish peroxidase. After washing in block solution, immunoreactive material was detected by enhanced chemiluminescence (SuperSignal West Dura Extended, Pierce, Inc., Rockville, Ill.).\nHT1080 cells were exposed to DMSO vehicle (lane 1), irestatin 9389 (2.5 μM; lane 2) for 16 hours or Tm (5 μg/ml; lane 3) for 8 hours. Following treatments, cells were harvested, lysed, and analyzed by immunoblotting using anti-Grp78 antibody (top) or anti-actin (bottom) as a loading control. […] Cell lysates were analyzed by Western immunoblotting using anti-IRE1α (bottom) or anti-phospho-IRE1α antibodies (top). […] Lysates were analyzed by Western blot using antisera specific for phospho-JNK1 (top) or total JNK1 (bottom). […]"}}}
{"compound": "Cc1csc(NC(=O)CSc2nc3c(c(C(F)(F)F)c2C#N)CCC3)n1", "note": "[Compound 9389]", "values": [{"measurement": "growth rate of HT1080 cells under normal conditions", "setting": "HT1080 fibrosarcoma", "value": "negligible effect"}, {"measurement": "Grp78 levels", "setting": "Grp78; listed as Irestatin 9389", "value": "does not modulate the expression of Grp78"}, {"measurement": "Grp78 levels", "setting": "Grp78; listed as irestatin 9389", "value": "no effect on Grp78 levels"}]}
